{
  "source": "the supplement of paper PMC11208160",
  "data": [
    {"experiment": "recombinant barcode read abundance after kanamycin selection (control-corrected) (log10(CPM+1)); higher = more efficient recombination; sequences stand for … in AGTGCAGAGAAAATCGGCCAGTTTTCTCTGCCTGCAGTCCGCATGCCGT…AGATTTATGCAGCGGACTGCCTTTCTCCCAAAGTGATAAACCGGACAGTATCATGGACCGGTTTTCCCGGTAATCCGTATTTGCAAGGTTGGTTTCACT; site = the 11-nt target", "summary_of_the_method": "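A vector carrying a T7-inducible recombinase and the last 73 bp of the bridge RNA received, by Gibson cloning, oligos encoding a promoter, target, barcode and the first 104 bridge RNA bases under J23119. The pooled constructs entered E. coli together with a donor plasmid by electroporation. Selection used chloramphenicol/ampicillin/kanamycin with 0.1 mM IPTG, with chloramphenicol/ampicillin LB agar as the control, each in two replicates. Recombination efficiency is the averaged, control-corrected counts-per-million of barcodes at recombinant junctions, reported as log10(CPM+1).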", "values": [
      {"sequence": "GTCGTCTCTTGGGTTCTAACCTGTTGCCT (site GTCGTCTCTAG)", "recombinant barcode read abundance (log10)": 1.65},
      {"sequence": "GTCGTTACTTGGGTTCTAACCTGTTGCCT (site GTCGTTACTAG)", "recombinant barcode read abundance (log10)": 0.339},
      {"sequence": "GTCGTTACTTGGGTTCTAACCTGTTGCCT (site TAGCAATCTTA)", "recombinant barcode read abundance (log10)": 0.22},
      {"sequence": "GTCGTTCCTTGGGTTCTAACCTGTTGCCT (site GTAGTTCCTAG)", "recombinant barcode read abundance (log10)": 0.535},
      {"sequence": "GTCGTTCCTTGGGTTCTAACCTGTTGCCT (site GTCGTTCCTAG)", "recombinant barcode read abundance (log10)": 0.153},
      {"sequence": "GTCTAGGCTTGGGTTCTAACCTGTTGCTG (site GCCGAGGCTCA)", "recombinant barcode read abundance (log10)": 0.242},
      {"sequence": "GTCTAGGCTTGGGTTCTAACCTGTTGCTG (site GTCTAGGCTCA)", "recombinant barcode read abundance (log10)": 0.876},
      {"sequence": "GTCTATACTTGGGTTCTAACCTGTTGCCA (site GTCTATACTTG)", "recombinant barcode read abundance (log10)": 0.571},
      {"sequence": "GTCTATACTTGGGTTCTAACCTGTTGCCA (site TTCTAGACTTG)", "recombinant barcode read abundance (log10)": 0.0838},
      {"sequence": "GTCTATACTTGGGTTCTAACCTGTTGCCT (site GTATATACTAG)", "recombinant barcode read abundance (log10)": 0.168},
      {"sequence": "GTCTATACTTGGGTTCTAACCTGTTGCCT (site GTCTATACTAG)", "recombinant barcode read abundance (log10)": 0.987},
      {"sequence": "GTCTATACTTGGGTTCTAACCTGTTGCCT (site GTGTATACTAG)", "recombinant barcode read abundance (log10)": 0.0645},
      {"sequence": "GTCTATACTTGGGTTCTAACCTGTTGCCT (site GTTTATACTAG)", "recombinant barcode read abundance (log10)": 0.311},
      {"sequence": "GTCTATGCTTGGGTTCTAACCTGTTGCGT (site GTCTAAGCTAA)", "recombinant barcode read abundance (log10)": 0.0746},
      {"sequence": "GTCTATGCTTGGGTTCTAACCTGTTGCGT (site GTCTATGCTAC)", "recombinant barcode read abundance (log10)": 0.0203},
      {"sequence": "GTCTCCTCTTGGGTTCTAACCTGTTGCCT (site GTCACCTCTAG)", "recombinant barcode read abundance (log10)": 0.0265},
      {"sequence": "GTCTCCTCTTGGGTTCTAACCTGTTGCCT (site GTCCCCTCTAG)", "recombinant barcode read abundance (log10)": 2.26},
      {"sequence": "GTCTCCTCTTGGGTTCTAACCTGTTGCCT (site GTCGCCTCTAG)", "recombinant barcode read abundance (log10)": 0.0306},
      {"sequence": "GTCTCCTCTTGGGTTCTAACCTGTTGCCT (site GTCTCCTCTAG)", "recombinant barcode read abundance (log10)": 1.62},
      {"sequence": "GTCTCTACTTGGGTTCTAACCTGTTGCCT (site GCCTCTTCTAG)", "recombinant barcode read abundance (log10)": 0.0271},
      {"sequence": "GTCTCTACTTGGGTTCTAACCTGTTGCCT (site GTCTCTACTAG)", "recombinant barcode read abundance (log10)": 0.221},
      {"sequence": "GTGAACTCTTGGGTTCTAACCTGTTGCTG (site GTGAACTCTCA)", "recombinant barcode read abundance (log10)": 2.33},
      {"sequence": "GTGAACTCTTGGGTTCTAACCTGTTGCTG (site GTGATCCCTCA)", "recombinant barcode read abundance (log10)": 0.0703},
      {"sequence": "GTGACTGCTTGGGTTCTAACCTGTTGCGT (site CACTAGACTCG)", "recombinant barcode read abundance (log10)": 0.0198},
      {"sequence": "GTGACTGCTTGGGTTCTAACCTGTTGCGT (site GTGACTGCTAC)", "recombinant barcode read abundance (log10)": 1.46},
      {"sequence": "GTGAGGTCTTGGGTTCTAACCTGTTGCAT (site GTGAGGTCTAA)", "recombinant barcode read abundance (log10)": 0.46},
      {"sequence": "GTGAGGTCTTGGGTTCTAACCTGTTGCAT (site GTGAGGTCTAC)", "recombinant barcode read abundance (log10)": 0.709},
      {"sequence": "GTGAGGTCTTGGGTTCTAACCTGTTGCAT (site GTGAGGTCTAG)", "recombinant barcode read abundance (log10)": 0.375},
      {"sequence": "GTGAGGTCTTGGGTTCTAACCTGTTGCAT (site GTGAGGTCTAT)", "recombinant barcode read abundance (log10)": 2.71},
      {"sequence": "GTGAGGTCTTGGGTTCTAACCTGTTGCGT (site GTGAGGTCTAA)", "recombinant barcode read abundance (log10)": 0.231},
      {"sequence": "GTGAGGTCTTGGGTTCTAACCTGTTGCGT (site GTGAGGTCTAC)", "recombinant barcode read abundance (log10)": 2.08},
      {"sequence": "GTGAGGTCTTGGGTTCTAACCTGTTGCGT (site GTGAGGTCTAG)", "recombinant barcode read abundance (log10)": 0.586},
      {"sequence": "GTGAGGTCTTGGGTTCTAACCTGTTGCGT (site GTGAGGTCTAT)", "recombinant barcode read abundance (log10)": 1.69},
      {"sequence": "GTGCAAACTTGGGTTCTAACCTGTTGCCT (site GTGCAAACTAG)", "recombinant barcode read abundance (log10)": 1.23},
      {"sequence": "GTGCAAACTTGGGTTCTAACCTGTTGCCT (site GTGCACACTTG)", "recombinant barcode read abundance (log10)": 0.0968},
      {"sequence": "GTGCTTACTTGGGTTCTAACCTGTTGCCT (site GAGCTTACTAG)", "recombinant barcode read abundance (log10)": 0.0771},
      {"sequence": "GTGCTTACTTGGGTTCTAACCTGTTGCCT (site GCGCTTACTAG)", "recombinant barcode read abundance (log10)": 0.0397},
      {"sequence": "GTGCTTACTTGGGTTCTAACCTGTTGCCT (site GGGCTTACTAG)", "recombinant barcode read abundance (log10)": 0.0436},
      {"sequence": "GTGCTTACTTGGGTTCTAACCTGTTGCCT (site GTGCTTACTAG)", "recombinant barcode read abundance (log10)": 0.538},
      {"sequence": "GTGGCTTCTTGGGTTCTAACCTGTTGCCT (site GAGGCTTCTAG)", "recombinant barcode read abundance (log10)": 0.128},
      {"sequence": "GTGGCTTCTTGGGTTCTAACCTGTTGCCT (site GCGGCTTCTAG)", "recombinant barcode read abundance (log10)": 0.248},
      {"sequence": "GTGGCTTCTTGGGTTCTAACCTGTTGCCT (site GGGGCTTCTAG)", "recombinant barcode read abundance (log10)": 0.132},
      {"sequence": "GTGGCTTCTTGGGTTCTAACCTGTTGCCT (site GTGGCTTCTAG)", "recombinant barcode read abundance (log10)": 0.389}
    ]}
  ]
}
